Assay results as given in patent US7579338B2, “Methods and compositions for treating atheroma, tumors and other neoplastic tissues” (Pharmacyclics, Inc., priority 1999, dated 2009).

Assays:
[1] = tested on: MES-SA human uterine cells; assay: Proliferation of MES-SA cells with BSO and GdTex (MTT); assay type: cell-based
Experimental: The proliferation of MES-SA human uterine cells grown in McCoys 5A medium in the presence of a thiol depleting agent (BSO) or GdTex was used to assess the combined effect of these agents. The protocol outlined in the previous example was followed, with the following changes:
1. The serially diluted compound was 200 μM BSO (Sigma Chemical, St. Louis, Mo., catalogue no. G1404).
2. The cells were allowed to incubate in the presence of the two drugs for ca. 72 hours, prior to exchange of media and analysis using the colorimetric (MTT) assay, as described, e.g., in Example 5.

[2] = tested on: MES-SA human uterine cells; assay: Proliferation of BSO-treated MES-SA cells with Antimycins A and GdTex (MTT); assay type: cell-based; conditions: BSO pre-treated cells, Antimycins A 0 to 20 μM, GdTex up to 100 μM, 20 h
Experimental: The proliferation of MES-SA human uterine cells grown in McCoys SA medium in the presence of the thiol depleting agent BSO, with varying concentrations of a mitochondrial inhibitor (Antimycins A) and GdTex was used to assess the combined effect of these agents.
Materials and Methods. MES-SA cells were incubated at 37° C. and allowed to adhere to 96-well microtiter plates (2000 cells per well) overnight in 180 μL McCoys 5A containing 10% FBS (Gibco-BRL) and ca. 2% penicillin/streptomycin solution (Sigma). BSO (20 μL) was added to all wells followed by incubation for a further 24 h. The medium was exchanged and Antimycins A was serially diluted at concentrations ranging from 0 to 20 μM and after 0.5 hr metallotexaphyrin complex (up to 100 μM) was added to the test wells to give a final volume of 200 μL, followed by incubation for 20 h, whereupon the medium was exchanged and the plates were incubated an additional 52 h prior to analysis for viability using the MTT assay.

[3] = tested on: MES-SA cells; assay: Radiation sensitization by clonogenic assay; assay type: cell-based, human
Experimental: The response of MES-SA cells to ionizing radiation was studied using a clonogenic assay format to confirm radiation sensitization potential.
Materials and Methods. MES-SA cells (200 to 5,000 cells per dish) were plated in T-25 flasks in 8.5 mL McCoys 5A containing 10% FBS (Gibco-BRL) and ca. 2% penicillin/streptomycin solution (Sigma) and incubated at 37° C. overnight. Stock BSO, ascorbate, GdTex (or a control 5% mannitol) solutions were prepared and 0.5 mL of each added to each flask to give a final volume of 10 mL (final concentrations of BSO, ascorbate and GdTex were 100 μM, 5 μM and 50 μM, respectively) and the cells incubated for 24 hr, whereupon the flasks were irradiated using a 137Cs irradiator (Model 40 Gammacell, J. L. Shepherd & Assoc., San Fernando, Calif.) at a dose rate of 0.805 Gy/min. Medium was removed immediately after irradiation, the cells were washed with fresh medium (5.0 mL) followed by the addition of fresh medium (10 mL) and incubation for an additional 11 days. Colonies were fixed and stained with 1% crystal violet and then counted.

[4] = Production of H2O2 in the presence of NADPH (Bioxytech H2O2-560 colorimetric); assay type: biochemical; conditions: NADPH plus 0.05 molar equivalent texaphyrin, no catalase, over the course of 100 minutes
Experimental: • Stock NADPH (Sigma N 7505) (prepared fresh): 10.14 mg/(10 mL×833.4 mg/mmol)=1.217 mM • Stock LuTex: 5.02 mg/(10.0 mL water×1166 mg/mmol)=[…] • Stock 4× Buffer: 200 mM HEPES, pH 7.5; 400 mM NaCl These were combined to form the reaction mixture: 200 μL 4× Buffer, 200 μL NADPH Stock, 371.8 μL Water, 28.2 μL LuTex Stock. This was analyzed as indicated below. As a control, a solution in which the LuTex complex was not added was prepared as above, with suitable adjustment of the volume of water, and analyzed concurrently. In similar manner, a solution was prepared as above except that 2 μL catalase (Boeringer-Mannheim 106 836, now Roche Molecular Biochemicals, Indianapolis, Ind.) was added, and analyzed concurrently.
A reaction mixture was prepared containing NADPH, buffer, and water. Texaphyrin catalyst, eg., 0.05 molar equivalent, was added to this reaction mixture, vortexed briefly, and incubated at ambient temperature in the dark. […] The absorbance at 240 nm was used to standardize this solution, which was further diluted and used to construct a standard H2O2 curve at 560 nm in conjunction with the H2O2 calorimetric reagent. […]
Measurements of the absorbance at 560 nm (with appropriate subtraction of the background absorbance of the reagent at this wavelength) were made of samples taken at the various time points.

Row | Compound | inhibitory effect of GdTex alone ([1]; absence of BSO, ca. 72 hours, McCoys 5A medium) | combined effect of GdTex and BSO on cell growth ([1]; increasing amounts of GdTex with BSO, data normalized for GdTex alone) | combined effect of GdTex and Antimycins A on cell growth [2] | radiation response, co-administration ([3]; 50 μM GdTex and 100 μM BSO co-administered, 24 h prior to irradiation) | effect on clonogenic survival as a function of radiation, single agent ([3]; 50 μM GdTex or 100 μM BSO for 24 h prior to irradiation, ascorbate-containing medium) | H2O2 produced [4]
1 | CC(=O)[O-].CC(=O)[O-].CCc1c(CC)c2cc3nc(cnc4cc(OCCOCCOCCOC)c(OCCOCCOCCOC)cc4ncc4nc(cc1[n-]2)C(CCCO)=C4C)C(C)=C3CCCO.O.[Gd+3] [GdTex, motexafin gadolinium] | ca. 50% | increase in the cytotoxic dose response of the cells towards BSO | increase in the cytotoxic dose response of the cells towards Antimycins A | radiation response significantly greater than the sum of the responses obtained from them individually | relatively small effect on clonogenic survival | 
2 | CC(=O)[O-].CC(=O)[O-].CCc1c(CC)c2cc3nc(cnc4cc(OCCOCCOCCOC)c(OCCOCCOCCOC)cc4ncc4nc(cc1[n-]2)C(CCCO)=C4C)C(C)=C3CCCO.O.[Lu+3] [LuTex, motexafin lutetium] |  |  |  |  |  | Approximately 40 μM
